Assay results from patent US10266558B2, “Macroheterocyclic nucleoside derivatives and their analogues, production and use thereof” (ASAVI, LLC, priority 2016, dated 2019).

How the values were obtained:
HBV wild-type = details: cited from earlier work
[1] = test system: lamivudine-entecavir resistant clone (L180M+M204V+S202G); details: resistant mutant (L180M+M204V+S202G); cited from earlier work
[2] = Metabolic stability in human liver S9 fraction; format: in vitro ADME; details: pH 7.4
Description: The human liver S9 fraction metabolic stability in human liver microsomal fraction of Macroheterocyclic nucleoside derivative represented by formula 1 and 2 and Sovaldi. Stock solutions of test compounds and PSI-352707 (10 mM) were prepared in DMSO and stored at −20° C. 10-× standard solutions of PSI-352707 (10, 8, 5, 2 and 1 μM) were prepared by dilution stock solution with water-acetonitrile mixture (1/1, v/v). The reaction mixture was prepared in a total volume of 350.5 μL containing 0.1 M potassium phosphate buffer (pH 7.4), 1 mM NADPH, 7 mM G6P, 1.5 U/mL G6PDH, 3.3 mM MgCl2, 5 mM UDPGA, 122 μLdeionised water and 1 μM test compound. The reaction mixture was pre-incubated at 400 rpm, 37° C. The reaction was initiated by adding 1 mg/mL human liver S9 fraction to the reaction mixture and incubated at 400 rpm, 37° C. […]
ABSciex QTrap 5500 Source (TurboIonSpray) was operated in negative ionization mode (Source temperature 650° C., Source gas 1 and Source gas 2-65 and 40 psi respectively). PSI-352707 and IS (tolbutamide) were detected in MRM mode by transitions with m/z 410 to 150 for H027-4261 (collision energy […]) and 269/170 for tolbutamide (collision energy […]). […] Data analysis and quantitation was performed in Analyst 1.5.2 Software (AB Sciex).

physchem = details: simulated gi fluid
HCV NS5B RNA-polymerase = target: T1, HCV NS5B RNA-polymerase (Hepatitis C virus genotype 1a, UniProt P27958); details: versus PSI-6206, Gemcitabine and 2′-C-Methylcytidine; cited from earlier work
T1 construct: HCV NS5B RNA-polymerase
T1 sequence (P27958 2421-3011): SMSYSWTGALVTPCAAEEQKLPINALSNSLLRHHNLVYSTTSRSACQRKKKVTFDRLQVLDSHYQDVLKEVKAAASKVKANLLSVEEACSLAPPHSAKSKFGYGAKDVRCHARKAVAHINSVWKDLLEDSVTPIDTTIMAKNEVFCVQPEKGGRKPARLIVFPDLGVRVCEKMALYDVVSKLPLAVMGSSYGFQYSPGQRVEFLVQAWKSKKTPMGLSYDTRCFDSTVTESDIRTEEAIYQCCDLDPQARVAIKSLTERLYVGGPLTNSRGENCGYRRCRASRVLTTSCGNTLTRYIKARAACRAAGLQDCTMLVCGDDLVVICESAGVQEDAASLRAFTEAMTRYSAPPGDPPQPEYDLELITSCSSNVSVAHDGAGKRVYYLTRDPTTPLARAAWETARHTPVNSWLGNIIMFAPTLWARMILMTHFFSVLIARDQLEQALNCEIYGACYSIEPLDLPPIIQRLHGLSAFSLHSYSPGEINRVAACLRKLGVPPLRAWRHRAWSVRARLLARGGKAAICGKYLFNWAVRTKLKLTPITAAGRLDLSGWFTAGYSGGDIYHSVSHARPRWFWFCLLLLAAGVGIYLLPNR

HCV replicon = details: cited from earlier work
[3] = in the clinic; cited from earlier work
[4] = test system: xenografts models of human pancreatic cancer; details: in vivo; cited from earlier work

2′-Fluoro-6′-methylene-carbocyclic adenosine phosphoramidate [5′-phosphoramidate of FMCA]
EC50 (HBV wild-type; HBV replication, wild-type): 620 nM
more potent than FMCA (HBV wild-type; against both the wild-type and resistant mutant): 10 fold
EC50 [1]: 54 nM

C[C@@H]1N[P@@](=O)(Oc2ccccc2)OC[C@H]2O[C@@H](n3ccc(=O)[nH]c3=O)[C@](C)(F)[C@@H]2OC(=O)CCCOC1=O [1(13)]
half-life at 1 μM [2]: > 744 min
half-life (physchem): > 1440 min

CC(C)OC(=O)[C@H](C)NP(=O)(OC[C@H]1O[C@@H](n2ccc(N)nc2=O)C(F)(F)[C@@H]1O)Oc1ccccc1 (some centres unmarked) [AVI-4201]
inhibitory activity compared with the corresponding nucleoside (HCV NS5B RNA-polymerase): by orders of magnitude higher

Nc1ccn([C@@H]2O[C@H](COP(=O)(N[C@H]3CCOC3=O)Oc3ccccc3)[C@@H](O)C2(F)F)c(=O)n1 (some centres unmarked) [AVI-4203]
inhibitory activity compared with the corresponding nucleoside (HCV NS5B RNA-polymerase): by orders of magnitude higher

CC(C)OC(=O)[C@H](C)NP(=O)(OC[C@H]1O[C@@H](n2ccc(NO)nc2=O)[C@](C)(O)[C@@H]1O)Oc1ccccc1 (some centres unmarked) [CC-1845]
inhibitory activity compared with the corresponding nucleoside (HCV NS5B RNA-polymerase): by orders of magnitude higher

CC(C)(CO)C(=O)SCCOP(=O)(COC[C@H]1OC(n2cnc3c(=O)[nH]c(N)nc32)[C@](C)(O)[C@@H]1O)NCc1ccccc1 (some centres unmarked) [IDX-184]
EC50 (HCV replicon): 400 nM

COc1nc(N)nc2c1ncn2[C@@H]1O[C@H](COP(=O)(N[C@@H](C)C(=O)OCC(C)(C)C)Oc2cccc3ccccc23)[C@@H](O)[C@@]1(C)O (some centres unmarked) [INX-08189]
EC50 (HCV replicon): 10 nM
cardiovascular toxicity [3]: severe cardiovascular toxicity

C[C@H](NP(=O)(OC[C@H]1O[C@@H](n2ccc(N)nc2=O)C(F)(F)[C@@H]1O)Oc1ccccc1)C(=O)OCc1ccccc1 (some centres unmarked) [NUC-1031, Gemcitabin-5′-phosphoramidate]
tumor volume [4]: significantly reduced tumor volume

COc1nc(N)nc2c1ncn2[C@@H]1O[C@H](COP(=O)(N[C@@H](C)C(=O)OC(C)C)Oc2ccccc2)[C@@H](O)[C@@]1(C)F (some centres unmarked) [PSI-353661]
EC90 (HCV replicon; replicon assay): 8 nM
increase in potency compared to the guanosine analogue β-D-2′-deoxy-2′-R-fluoro-2′-β-C-methylguanosine (HCV replicon; replicon assay): 1000 fold

CC(C)OC(=O)[C@H](C)N[P@](=O)(OC[C@H]1O[C@@H](n2ccc(=O)[nH]c2=O)[C@](C)(F)[C@@H]1O)Oc1ccccc1 [Sovaldi®, sofosbuvir]
half-life at 1 μM [2]: > 108 min
inhibitory activity compared with the corresponding nucleoside (HCV NS5B RNA-polymerase): by orders of magnitude higher
half-life (physchem): 900 min
